Laboratory results as given in ChEMBL document CHEMBL2424642, “Heterocyclic glucocorticoid receptor modulators with a 2,2-dimethyl-3-phenyl-N-(thiazol or thiadiazol-2-yl)propanamide core” (Bioorg Med Chem Lett, 2013).

Legend:
[1] = target: T1, Glucocorticoid receptor (Homo sapiens, UniProt P04150); assay: Transrepression of glucocorticoid receptor in human A549 cells assessed as inhibition of PMA-induced AP-1 activity by luciferase reporter gene assay; assay type: cell-based
T1 sequence (P04150 whole entry): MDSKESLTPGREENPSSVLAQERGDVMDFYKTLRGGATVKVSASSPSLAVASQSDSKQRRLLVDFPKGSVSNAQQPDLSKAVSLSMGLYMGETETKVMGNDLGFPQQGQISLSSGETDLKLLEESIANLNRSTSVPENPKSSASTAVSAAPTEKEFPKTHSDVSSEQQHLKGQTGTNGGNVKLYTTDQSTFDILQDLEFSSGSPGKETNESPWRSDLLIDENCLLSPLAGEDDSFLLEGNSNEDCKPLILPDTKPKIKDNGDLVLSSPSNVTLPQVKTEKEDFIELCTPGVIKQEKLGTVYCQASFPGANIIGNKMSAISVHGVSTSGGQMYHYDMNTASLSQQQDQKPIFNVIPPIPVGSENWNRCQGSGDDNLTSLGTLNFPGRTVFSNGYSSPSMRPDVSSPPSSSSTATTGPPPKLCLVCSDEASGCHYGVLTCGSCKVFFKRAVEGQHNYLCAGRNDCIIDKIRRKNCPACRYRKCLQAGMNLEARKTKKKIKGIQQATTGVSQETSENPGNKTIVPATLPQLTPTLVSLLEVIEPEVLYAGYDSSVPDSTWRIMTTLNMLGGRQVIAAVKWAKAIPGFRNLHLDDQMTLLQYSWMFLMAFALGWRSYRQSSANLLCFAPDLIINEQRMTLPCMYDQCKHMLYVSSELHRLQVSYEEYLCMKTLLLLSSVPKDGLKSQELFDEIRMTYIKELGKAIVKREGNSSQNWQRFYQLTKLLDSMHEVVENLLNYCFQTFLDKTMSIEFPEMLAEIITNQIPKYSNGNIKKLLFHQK

[2] = target: T2, Glucocorticoid receptor (GR-LBD) (Homo sapiens, UniProt P04150); assay: (§1) Transactivation of GR-LBD expressed in human HeLa cells co-expressing GAL4-DBD by luciferase reporter gene assayrelative to dexamethasone; assay type: cell-based; settings: HeLa cells expressing GR-LBD and GAL4-DBD, read-out: Efficacy
T2 sequence (P04150 whole entry): T1 sequence (P04150 whole entry)

[3] = target: T1, Glucocorticoid receptor; assay: Transactivation of GR-LBD expressed in human HeLa cells co-expressing GAL4-DBD by luciferase reporter gene assay; assay type: cell-based
[4] = target: T3, Glucocorticoid receptor (Homo sapiens) (UniProt P04150); assay: Transrepression of glucocorticoid receptor in human A549 cells assessed as inhibition of PMA-induced AP-1 activity by luciferase reporter gene assay relative to dexamethasone; assay type: cell-based
T3 sequence (whole entry): T1 sequence (P04150 whole entry)

[5] = target: T1, Glucocorticoid receptor; assay: Binding affinity to glucocorticoid receptor-LBD (unknown origin) by fluorescence polarization assay
[6] = target: T1, Glucocorticoid receptor; assay: as §1; assay type: cell-based; settings: hela

Compound | EC50 [1] | Emax [2] | EC50 [3] | Efficacy [4] | Ki [5] | Efficacy [6]
CC(C)(C(=O)Nc1nccs1)C(c1ccccc1)c1ccc2nncn2c1 (centres undefined) | > 10000 nM | – | – | – | – | –
CC(C)(C(=O)Nc1nccs1)C(c1ccccc1)c1ccc2c(-c3ccc(F)cc3F)ncn2c1 (centres undefined) | 14 nM | 73% | 78 nM | 75% | 2 nM | –
CC(C)(C(=O)Nc1nncs1)C(c1ccccc1)c1ccc2c(-c3ccc(F)cc3)ncn2c1 (single isomer, unassigned; enantiomer 2) [listing 1 of 2 here] | – | – | – | 72% | – | –
CC(C)(C(=O)Nc1nncs1)C(c1ccccc1)c1ccn2c(-c3ccccc3)ncc2c1 (centres undefined) [listing 1 of 2 here] | – | – | – | 66% | – | –
CC(C)(C(=O)Nc1nncs1)C(c1ccccc1)c1ccc2c(-c3cccc(CO)c3)ncn2c1 (centres undefined) | > 5000 nM | – | > 10000 nM | – | 5 nM | –
CC(C)(C(=O)Nc1nccs1)C(c1ccccc1)c1ccc2c(-c3cccc(C#N)c3)ncn2c1 (centres undefined) | 225 nM | – | > 10000 nM | 30% | 4 nM | –
CC(C)(C(=O)Nc1nncs1)C(c1ccccc1)c1ccn2c(-c3ccccc3)ncc2c1 (single isomer, unassigned; enantiomer 1) [listing 1 of 2 here] | 1120 nM | – | > 10000 nM | – | 5 nM | –
CC(C)(C(=O)Nc1nccs1)C(c1ccccc1)c1ccc2c(ccn2-c2ccc(F)cc2)c1 (centres undefined) | 220 nM | – | – | 60% | – | –
CC(C)(C(=O)Nc1nccs1)C(c1ccccc1)c1ccc2cnccc2c1 (centres undefined) | > 10000 nM | – | – | – | 15 nM | –
CC(C)(C(=O)Nc1nncs1)C(c1ccccc1)c1ccc2c(-c3ccc(F)cc3)ncn2c1 (centres undefined) [listing 1 of 2 here] | 36 nM | 66% | 262 nM | – | 3 nM | –
CC(C)(C(=O)Nc1nncs1)C(c1ccccc1)c1ccc2c(-c3ccc(F)cc3)ncn2c1 (centres undefined) [listing 2 of 2 here] | – | – | – | 68% | – | –
CC(C)(C(=O)Nc1nncs1)C(c1ccccc1)c1ccn2c(-c3ccccc3)ncc2c1 (single isomer, unassigned; enantiomer 1) [listing 2 of 2 here] | – | – | – | 34% | – | –
CC(C)(C(=O)Nc1nccs1)C(c1ccccc1)c1ccc2c(-c3ccc(F)cc3)ncn2c1 (centres undefined) [listing 1 of 2 here] | 16 nM | 74% | 103 nM | – | 3 nM | –
CC(C)(C(=O)Nc1nccs1)C(c1ccccc1)c1ccn2cncc2c1 (centres undefined) | 1200 nM | – | – | 39% | 18 nM | –
CC(C)(C(=O)Nc1nccs1)C(c1ccccc1)c1ccn2c(-c3ccccc3)ncc2c1 (single isomer, unassigned; enantiomer 1) | > 2500 nM | – | > 10000 nM | – | 11 nM | –
CC(C)(C(=O)Nc1nncs1)C(c1ccccc1)c1cc(-c2ccc(F)cc2)c2ncccc2c1 (centres undefined) | > 10000 nM | – | – | – | 196 nM | –
CC(C)(C(=O)Nc1nncs1)C(c1ccccc1)c1ccc2c(-c3ccc(F)cc3)ncn2c1 (single isomer, unassigned; enantiomer 1) [listing 1 of 2 here] | – | – | – | 24% | – | –
CC(C)(C(=O)Nc1nccs1)C(c1ccccc1)c1ccc2c(-c3ccc(F)cc3)ncn2c1 (single isomer, unassigned; enantiomer 2) [listing 1 of 2 here] | 6 nM | – | 60 nM | – | 1 nM | 69%
CC(C)(C(=O)Nc1nccs1)C(c1ccccc1)c1ccc2[nH]ccc2c1 (centres undefined) | 230 nM | – | – | 61% | 7 nM | –

Compound | EC50 [1] | Emax [2] | EC50 [3] | Efficacy [4] | Ki [5] | Efficacy [6]
CC(C)(C(=O)Nc1nncs1)C(c1ccccc1)c1ccn2c(-c3ccccc3)ncc2c1 (single isomer, unassigned; enantiomer 2) [listing 1 of 2 here] | 254 nM | 43% | 613 nM | – | 1 nM | –
CC(C)(C(=O)Nc1nccs1)C(c1ccccc1)c1ccc2c(-c3ccc(F)cc3)ncn2c1 (single isomer, unassigned; enantiomer 1) | > 5000 nM | – | > 10000 nM | – | 4 nM | –
CC(C)(C(=O)Nc1nncs1)C(c1ccccc1)c1ccn2c(-c3ccccc3)ncc2c1 (single isomer, unassigned; enantiomer 2) [listing 2 of 2 here] | – | – | – | 61% | – | –
CC(C)(C(=O)Nc1nccs1)C(c1ccccc1)c1ccc2c(-c3ccc(F)cc3)ncn2c1 (single isomer, unassigned; enantiomer 2) [listing 2 of 2 here] | – | – | – | 73% | – | –
CC(C)(C(=O)Nc1nccs1)C(c1ccccc1)c1ccc2cncn2c1 (centres undefined) | > 10000 nM | – | – | – | – | –
CC(C)(C(=O)Nc1nncs1)C(c1ccccc1)c1ccc2c(-c3ccc(F)cc3)ncn2c1 (single isomer, unassigned; enantiomer 1) [listing 2 of 2 here] | 1200 nM | – | > 10000 nM | – | 6 nM | –
CC(C)(C(=O)Nc1nccs1)C(c1ccccc1)c1ccn2c(-c3ccccc3)ncc2c1 (centres undefined) [listing 1 of 2 here] | 60 nM | 32% | 360 nM | – | 5 nM | –
CC(C)(C(=O)Nc1nccs1)C(c1ccccc1)c1ccc2c(-c3ccc(F)c(Cl)c3)ncn2c1 (centres undefined) | 114 nM | – | > 10000 nM | 26% | 8 nM | –
CC(C)(C(=O)Nc1nncs1)C(c1ccccc1)c1ccc2c(-c3ccc(F)cc3)ncn2c1 (single isomer, unassigned; enantiomer 2) [listing 2 of 2 here] | 24 nM | – | 118 nM | – | 2 nM | 65%
CC(C)(C(=O)Nc1nccs1)C(c1ccccc1)c1cc(-c2ccc(F)cc2)c2ncccc2c1 (centres undefined) | > 10000 nM | – | – | – | 285 nM | –
CC(C)(C(=O)Nc1nccs1)C(c1ccccc1)c1ccc2ncccc2c1 (centres undefined) | > 10000 nM | – | – | – | 85 nM | –
CC(C)(C(=O)Nc1nccs1)C(c1ccccc1)c1ccc2c(-c3ccc(C#N)cc3)ncn2c1 (centres undefined) | 89 nM | – | > 10000 nM | 37% | 4 nM | –
CC(C)(C(=O)Nc1nncs1)C(c1ccccc1)c1ccc2c(-c3ccc(C#N)cc3)ncn2c1 (centres undefined) | 140 nM | – | > 10000 nM | 37% | 2 nM | –
CC(C)(C(=O)Nc1nncs1)C(c1ccccc1)c1ccc2c(-c3cccc(C#N)c3)ncn2c1 (centres undefined) | 1350 nM | – | > 10000 nM | 32% | 4 nM | –
CC(C)(C(=O)Nc1nncs1)C(c1ccccc1)c1ccc2c(-c3ccc(F)c(Cl)c3)ncn2c1 (centres undefined) | 111 nM | – | > 10000 nM | 20% | 5 nM | –
CC(C)(C(=O)Nc1nncs1)C(c1ccccc1)c1ccn2c(-c3ccccc3)ncc2c1 (centres undefined) [listing 2 of 2 here] | 899 nM | – | 2000 nM | – | 3 nM | 30%
CC(C)(C(=O)Nc1nccs1)C(c1ccccc1)c1ccn2c(-c3ccccc3)ncc2c1 (centres undefined) [listing 2 of 2 here] | – | – | – | 70% | – | –
CC(C)(C(=O)Nc1nccs1)C(c1ccccc1)c1ccc2c(-c3ccc(F)cc3)ncn2c1 (centres undefined) [listing 2 of 2 here] | – | – | – | 66% | – | –
CC(C)(C(=O)Nc1nncs1)C(c1ccccc1)c1ccc2c(-c3ccc(F)cc3F)ncn2c1 (centres undefined) | 15 nM | 61% | 117 nM | 69% | 1 nM | –
